Measurements taken from patent publication US20110039721A1, “METHOD FOR PREDICTION ABOUT CARCINOGENICITY OF SUBSTANCE IN RODENT” (Chemicals Evaluation and Research Institute, priority 2007, published 2011).

Test system: mRNA expressed from the genes (A) to (D) in rat liver
Assay: Behavior of genes (mRNA expression level, oligo-DNA microarray) in rat liver after 28-day oral administration
Format: in vivo
Conditions: for Behavior of gene caused by administration of chemical substance, Gene No. 4846 / Behavior of gene caused by administration of chemical substance, Gene No. 2026 / Behavior of gene caused by administration of chemical substance, Gene No. 4218 / Behavior of gene caused by administration of chemical substance, Gene No. 6182 / Behavior of gene caused by administration of chemical substance, Gene No. 5600: gene group (A); for Behavior of gene caused by administration of chemical substance, Gene No. 4846: Unigene No. Rn.144554; for Behavior of gene caused by administration of chemical substance, Gene No. 2026 / Behavior of gene caused by administration of chemical substance, Gene No. 4218: Unigene No. Rn.167075; for Behavior of gene caused by administration of chemical substance, Gene No. 6182: Unigene No. Rn.5834; for Behavior of gene caused by administration of chemical substance, Gene No. 5600: Unigene No. Rn.9836; for Behavior of gene caused by administration of chemical substance, Gene No. 1494 / Behavior of gene caused by administration of chemical substance, Gene No. 2045 / Behavior of gene caused by administration of chemical substance, Gene No. 2203: gene group (B); for Behavior of gene caused by administration of chemical substance, Gene No. 1494: Unigene No. Rn.1430; for Behavior of gene caused by administration of chemical substance, Gene No. 2045: Unigene No. Rn.19329; for Behavior of gene caused by administration of chemical substance, Gene No. 2203: Unigene No. Rn.21240; for Behavior of gene caused by administration of chemical substance, Gene No. 533 / Behavior of gene caused by administration of chemical substance, Gene No. 725 / Behavior of gene caused by administration of chemical substance, Gene No. 1163 / Behavior of gene caused by administration of chemical substance, Gene No. 4973 / Behavior of gene caused by administration of chemical substance, Gene No. 4095 / Behavior of gene caused by administration of chemical substance, Gene No. 1334 / Behavior of gene caused by administration of chemical substance, Gene No. 6620 / Behavior of gene caused by administration of chemical substance, Gene No. 6303 / Behavior of gene caused by administration of chemical substance, Gene No. 5878 / Behavior of gene caused by administration of chemical substance, Gene No. 1131 / Behavior of gene caused by administration of chemical substance, Gene No. 1562 / Behavior of gene caused by administration of chemical substance, Gene No. 1741 / Behavior of gene caused by administration of chemical substance, Gene No. 893 / Behavior of gene caused by administration of chemical substance, Gene No. 6026 / Behavior of gene caused by administration of chemical substance, Gene No. 154 / Behavior of gene caused by administration of chemical substance, Gene No. 1993 / Behavior of gene caused by administration of chemical substance, Gene No. 813 / Behavior of gene caused by administration of chemical substance, Gene No. 2494 / Behavior of gene caused by administration of chemical substance, Gene No. 2546 / Behavior of gene caused by administration of chemical substance, Gene No. 3776 / Behavior of gene caused by administration of chemical substance, Gene No. 3929 / Behavior of gene caused by administration of chemical substance, Gene No. 1119 / Behavior of gene caused by administration of chemical substance, Gene No. 6742 / Behavior of gene caused by administration of chemical substance, Gene No. 5634: gene group (C); for Behavior of gene caused by administration of chemical substance, Gene No. 533: Unigene No. Rn.106184; for Behavior of gene caused by administration of chemical substance, Gene No. 725: Unigene No. Rn.108075; for Behavior of gene caused by administration of chemical substance, Gene No. 1163: Unigene No. Rn.11766; for Behavior of gene caused by administration of chemical substance, Gene No. 4973: Unigene No. Rn.118529; for Behavior of gene caused by administration of chemical substance, Gene No. 4095: Unigene No. Rn.119024; for Behavior of gene caused by administration of chemical substance, Gene No. 1334 / Behavior of gene caused by administration of chemical substance, Gene No. 6620: Unigene No. Rn.120914; for Behavior of gene caused by administration of chemical substance, Gene No. 6303: Unigene No. Rn.123063; for Behavior of gene caused by administration of chemical substance, Gene No. 5878: Unigene No. Rn.143213; for Behavior of gene caused by administration of chemical substance, Gene No. 1131: Unigene No. Rn.144946; for Behavior of gene caused by administration of chemical substance, Gene No. 1562: Unigene No. Rn.14744; for Behavior of gene caused by administration of chemical substance, Gene No. 1741: Unigene No. Rn.1647; for Behavior of gene caused by administration of chemical substance, Gene No. 893: Unigene No. Rn.164817; for Behavior of gene caused by administration of chemical substance, Gene No. 6026: Unigene No. Rn.167685; for Behavior of gene caused by administration of chemical substance, Gene No. 154: Unigene No. Rn.185941; for Behavior of gene caused by administration of chemical substance, Gene No. 1993: Unigene No. Rn.18728; for Behavior of gene caused by administration of chemical substance, Gene No. 813: Unigene No. Rn.201760; for Behavior of gene caused by administration of chemical substance, Gene No. 2494: Unigene No. Rn.23969; for Behavior of gene caused by administration of chemical substance, Gene No. 2546: Unigene No. Rn.24561; for Behavior of gene caused by administration of chemical substance, Gene No. 3776: Unigene No. Rn.43232; for Behavior of gene caused by administration of chemical substance, Gene No. 3929: Unigene No. Rn.4620; for Behavior of gene caused by administration of chemical substance, Gene No. 1119: Unigene No. Rn.9757; for Behavior of gene caused by administration of chemical substance, Gene No. 6742: Unigene No. Rn.9779; for Behavior of gene caused by administration of chemical substance, Gene No. 5634: Unigene No. Rn.9862; for Behavior of gene caused by administration of chemical substance, Gene No. 5726: gene group (D), Unigene No. Rn.9939
Experimental: A test solution was prepared by dissolving each of the carcinogens and the non-carcinogens shown in Tables 2 to 6 in the corresponding solvent shown in Tables 2 to 6. Each of the thus prepared test solutions and the solvents used for the preparation was administered by oral gavage to rats in each group. As the rats, male rats (F344 SPF rats) at 5 weeks of age obtained from Charles River Laboratories Japan, Inc. were used. The animals were divided into groups, each containing four individuals. The volume of the solvent administered to the vehicle control group was set to the same volume as that of the test solution administered to the carcinogen administration group or the non-carcinogen administration group. The administration of the test solution or the solvent was performed once daily for 28 days. Apiece was excised from the liver of each of the rats after a lapse of 28 days from the initiation of the administration, and the total RNA was extracted and purified.
The expression level of mRNA was compared between each of the chemical substance administration groups and the corresponding vehicle control group, and genes that satisfy the requirements described in (A) to (D) were selected, respectively.
The case where the expression level of mRNA in the carcinogen administration group or the non-carcinogen administration group is 1.5 times or more or 1/1.5 or less of the expression level of the corresponding mRNA expressed in the control group was determined to be significant. In this connection, the determination as to whether or not the change is significant was performed by taking into consideration the direction of increase or decrease in the expression level. In the case where the direction of increase or decrease is different as compared with the case where another carcinogen was administered, the change was determined to be not significant.

c1ccc2c(c1)cc1ccc3cccc4ccc2c1c34 [TS063, Benzo[a]pyrene]
−: Behavior of gene caused by administration of chemical substance, Gene No. 4846 (mRNA vs vehicle control group) | Behavior of gene caused by administration of chemical substance, Gene No. 4218 (mRNA vs vehicle control group) | Behavior of gene caused by administration of chemical substance, Gene No. 5600 (mRNA vs vehicle control group) | Behavior of gene caused by administration of chemical substance, Gene No. 1494 (mRNA vs vehicle control group) | Behavior of gene caused by administration of chemical substance, Gene No. 533 (mRNA vs vehicle control group) | Behavior of gene caused by administration of chemical substance, Gene No. 725 (mRNA vs vehicle control group) | Behavior of gene caused by administration of chemical substance, Gene No. 1163 (mRNA vs vehicle control group) | Behavior of gene caused by administration of chemical substance, Gene No. 4973 (mRNA vs vehicle control group) | Behavior of gene caused by administration of chemical substance, Gene No. 4095 (mRNA vs vehicle control group) | Behavior of gene caused by administration of chemical substance, Gene No. 1334 (mRNA vs vehicle control group) | Behavior of gene caused by administration of chemical substance, Gene No. 6620 (mRNA vs vehicle control group) | Behavior of gene caused by administration of chemical substance, Gene No. 6303 (mRNA vs vehicle control group) | Behavior of gene caused by administration of chemical substance, Gene No. 5878 (mRNA vs vehicle control group) | Behavior of gene caused by administration of chemical substance, Gene No. 1131 (mRNA vs vehicle control group) | Behavior of gene caused by administration of chemical substance, Gene No. 1562 (mRNA vs vehicle control group) | Behavior of gene caused by administration of chemical substance, Gene No. 1741 (mRNA vs vehicle control group) | Behavior of gene caused by administration of chemical substance, Gene No. 893 (mRNA vs vehicle control group) | Behavior of gene caused by administration of chemical substance, Gene No. 6026 (mRNA vs vehicle control group) | Behavior of gene caused by administration of chemical substance, Gene No. 154 (mRNA vs vehicle control group) | Behavior of gene caused by administration of chemical substance, Gene No. 1993 (mRNA vs vehicle control group) | Behavior of gene caused by administration of chemical substance, Gene No. 813 (mRNA vs vehicle control group) | Behavior of gene caused by administration of chemical substance, Gene No. 2494 (mRNA vs vehicle control group) | Behavior of gene caused by administration of chemical substance, Gene No. 2546 (mRNA vs vehicle control group) | Behavior of gene caused by administration of chemical substance, Gene No. 3776 (mRNA vs vehicle control group) | Behavior of gene caused by administration of chemical substance, Gene No. 3929 (mRNA vs vehicle control group) | Behavior of gene caused by administration of chemical substance, Gene No. 1119 (mRNA vs vehicle control group) | Behavior of gene caused by administration of chemical substance, Gene No. 6742 (mRNA vs vehicle control group) | Behavior of gene caused by administration of chemical substance, Gene No. 5726 (mRNA vs vehicle control group)
+: Behavior of gene caused by administration of chemical substance, Gene No. 2026 (mRNA vs vehicle control group) | Behavior of gene caused by administration of chemical substance, Gene No. 6182 (mRNA vs vehicle control group) | Behavior of gene caused by administration of chemical substance, Gene No. 2045 (mRNA vs vehicle control group) | Behavior of gene caused by administration of chemical substance, Gene No. 2203 (mRNA vs vehicle control group) | Behavior of gene caused by administration of chemical substance, Gene No. 5634 (mRNA vs vehicle control group)

COc1ccc2c(c1)c(CC(=O)O)c(C)n2C(=O)c1ccc(Cl)cc1 [TS085, Indomethacin]
−: Behavior of gene caused by administration of chemical substance, Gene No. 4846 | Behavior of gene caused by administration of chemical substance, Gene No. 2026 | Behavior of gene caused by administration of chemical substance, Gene No. 4218 | Behavior of gene caused by administration of chemical substance, Gene No. 6182 | Behavior of gene caused by administration of chemical substance, Gene No. 5600 | Behavior of gene caused by administration of chemical substance, Gene No. 1494 | Behavior of gene caused by administration of chemical substance, Gene No. 2045 | Behavior of gene caused by administration of chemical substance, Gene No. 2203 | Behavior of gene caused by administration of chemical substance, Gene No. 533 | Behavior of gene caused by administration of chemical substance, Gene No. 725 | Behavior of gene caused by administration of chemical substance, Gene No. 1163 | Behavior of gene caused by administration of chemical substance, Gene No. 4973 | Behavior of gene caused by administration of chemical substance, Gene No. 4095 | Behavior of gene caused by administration of chemical substance, Gene No. 1334 | Behavior of gene caused by administration of chemical substance, Gene No. 6620 | Behavior of gene caused by administration of chemical substance, Gene No. 6303 | Behavior of gene caused by administration of chemical substance, Gene No. 5878 | Behavior of gene caused by administration of chemical substance, Gene No. 1131 | Behavior of gene caused by administration of chemical substance, Gene No. 1562 | Behavior of gene caused by administration of chemical substance, Gene No. 1741 | Behavior of gene caused by administration of chemical substance, Gene No. 893 | Behavior of gene caused by administration of chemical substance, Gene No. 6026 | Behavior of gene caused by administration of chemical substance, Gene No. 154 | Behavior of gene caused by administration of chemical substance, Gene No. 1993 | Behavior of gene caused by administration of chemical substance, Gene No. 813 | Behavior of gene caused by administration of chemical substance, Gene No. 2494 | Behavior of gene caused by administration of chemical substance, Gene No. 2546 | Behavior of gene caused by administration of chemical substance, Gene No. 3776 | Behavior of gene caused by administration of chemical substance, Gene No. 3929 | Behavior of gene caused by administration of chemical substance, Gene No. 1119 | Behavior of gene caused by administration of chemical substance, Gene No. 6742 | Behavior of gene caused by administration of chemical substance, Gene No. 5634 | Behavior of gene caused by administration of chemical substance, Gene No. 5726
